Assay results from US8551981B2, “Furo[3,2-d]pyrimidine compounds” (AbbVie Inc., priority 2010, dated 2013).

Test system: Fcγ receptor signaling
Assay: Reverse Passive Arthus model
Assay type: in vivo
Conditions: Rattus norvegicus, single dose 10 mg/kg
Protocol: Acute in vivo measurement of Fcγ receptor signaling inhibition of the compounds is measured using the:
Reverse Passive Arthus Model
On day 0 OVA was made up at a concentration of 17 mg/mL, in PBS by rocking gently until a solution was formed. 2% Evans Blue solution (Sigma Aldrich, cat# E2129) was then added to double the volume for a final concentration of 8.5 mg/mL of OVA and 1% Evans Blue dye. Anti-OVA antibody (Abazyme), stock concentration 10 mg/mL, was thawed and a 4 mg/mL solution was made with PBS. Compounds were made up in 0.5% HPMC with 0.02% Tween 80, and vortexed for about 15 seconds followed by homogenization for a minimum of about 2 min at 28,000 RPM until there was a fine particulate suspension with no clumps of compound. Rats were weighed and dosed with compound at a pre-determined time based on compound Tmax determined in pharmacokinetic studies. Animals were then placed under general anesthesia with a 5% isoflourane and oxygen mixture and shaved. Using a 0.5 cc insulin syringe two sites were injected i.d., 1 site with 100 μL of 4.0 mg/mL of anti-OVA antibody, and 1 site with 100 μL of sterile PBS. Each injection site was circled with a permanent marker to mark the site. Immediately following i.d. injections, animals were injected with 200 μL of the OVA (10 mg/kg)/1% Evans Blue mixture, i.v., using a 0.5 cc insulin syringe. About 4 h post injection animals were euthanized, bled via cardiac puncture and blood was put into plasma separation tubes. Blood samples were stored on ice until centrifugation (within about 2 h of collection). Each injection site was removed with a disposable biopsy punch (Acuderm Acu-Punch Disposable 12 mm), cut into four pieces and placed in a pre-labeled 2 mL eppendorf tube. One mL of DMF (99%) was added to each biopsy tube and they were placed in a heat block at about 50° C. for about 24 h. After incubation, 100 μL of each sample was transferred to a 96 well flat bottom plate and read at 620 nm on a plate reader using the Softmax software. Background was removed by subtracting the OD from the PBS injected site from the OD of the anti-OVA injected site for each individual animal. Plasma samples were spun down in a microcentrifuge (Eppendorf 5415R) for about 5 min at 16.1 rcf. 200 μL of plasma was placed in a 1.7 mL eppendorf tube for drug level measurements and tubes were stored at about −80° C. until evaluation.

SMILES | inhibition in vivo at 10 mg/kg [%]
Cn1ncc2cc(Nc3nc(NC4CC4)c4occc4n3)ccc21 [B.5.8] | 49
Cc1n[nH]c2cc(Nc3nc(N4CCCC(N)CC4)c4occc4n3)ccc12 (stereo not shown) [C.1.29] | -5
CC1Cc2ccc(Nc3nc(NC4CC4)c4occc4n3)cc2NC1=O (stereo not shown) [Example #6, 7-(4-(Cyclopropylamino)furo[3,2-d]pyrimidin-2-ylamino)-3-methyl-3,4-dihydroquinolin-2(1H)-one] | 59
CC1(C)C(=O)Nc2cc(Nc3nc(N4CCC5(CCCNC5)CC4)c4occc4n3)ccc21 [C.1.37] | -5
Clc1cc(Nc2nc(N3CCC4(CCCNC4)CC3)c3occc3n2)ccc1N1CCOCC1 [C.1.41] | 40
CC1(C)C(=O)Nc2cc(Nc3nc(N4CCC(CNCC(F)F)CC4)c4occc4n3)ccc21 [B.5.60] | 10
COc1cc(Nc2nc(N3CCC4(CCCNC4)CC3)c3occc3n2)ccc1N1CCOCC1 [C.1.39] | 44
